Test results: patent US10287295B2, “TGF-β inhibitors” (Rigel Pharmaceuticals, Inc., priority 2015, dated 2019)
pIC50: −log10 of the molar value.

Assays:
[1] = test system: TGF-β signaling (TGF-β pSMAD, MPC-11); assay: AlphaScreen SureFire SMAD3 (p-Ser423/425) assay, inhibition of TGF-β signaling; type: cell-based; conditions: Mus musculus, MPC-11, inhibition of TGF-β signaling, p-SMAD3 readout
[2] = test system: GDF8 signaling (GDF pSMAD, MPC11); assay: AlphaScreen SureFire SMAD3 (p-Ser423/425) assay, inhibition of GDF8 signaling; type: cell-based; conditions: Mus musculus, MPC-11, inhibition of GDF8 signaling, p-SMAD3 readout

Row | pIC50 [1] | pIC50 [2] | Compound
1 | 6.64 | 7.15 | c1ccc(-c2nc[nH]c2-c2ccc3[nH]ncc3c2)cc1 [Compound 1, 5-(4-Phenyl-1H-imidazol-5-yl)-1H-indazole]
2 | 6.70 | 7.22 | c1ccc(-c2nc[nH]c2-c2ccc3cn[nH]c3c2)cc1 [Compound 2, 6-(4-Phenyl-1H-imidazol-5-yl)-1H-indazole]
3 | 8.00 | 8.00 | Cc1cc(-c2nc[nH]c2-c2ccc3[nH]ncc3c2)ccc1F [Compound 3, 5-(4-(4-Fluoro-3-methylphenyl)-1H-imidazol-5-yl)-1H-indazole]
4 | 7.70 | 8.00 | Cc1cc(-c2nc[nH]c2-c2ccc3cn[nH]c3c2)ccc1F [Compound 4, 6-(4-(4-Fluoro-3-methylphenyl)-1H-imidazol-5-yl)-1H-indazole]
5 | 6.21 | 6.80 | Clc1ccc(-c2nc[nH]c2-c2ccc3[nH]ncc3c2)cc1 [Compound 6, 5-(4-(4-Chlorophenyl)-1H-imidazol-5-yl)-1H-indazole]
6 | 6.68 | 7.05 | Cc1cc(-c2ncn(C)c2-c2ccc3ncn(C)c3c2)ccc1F [Compound 8, 6-(4-(4-Fluoro-3-methylphenyl)-1-methyl-1H-imidazol-5-yl)-1-methyl-1H-benzo[d]imidazole]
7 | 6.48 | 7.22 | Cc1cc(-c2ncn(C)c2-c2ccc3ncsc3c2)ccc1F [Compound 9, 6-(4-(4-Fluoro-3-methylphenyl)-1-methyl-1H-imidazol-5-yl)benzo[d]thiazole]
8 | 7.22 | 8.00 | Fc1ccc(-c2nc[nH]c2-c2ccc3[nH]ncc3c2)cc1 [Compound 10, 5-(4-(4-Fluorophenyl)-1H-imidazol-5-yl)-1H-indazole]
9 | 6.89 | 7.40 | Fc1ccc(-c2nc[nH]c2-c2ccc3cn[nH]c3c2)cc1 [Compound 11, 6-(4-(4-Fluorophenyl)-1H-imidazol-5-yl)-1H-indazole]
10 | 6.57 | 6.89 | Cn1cnc2ccc(-c3[nH]cnc3-c3ccc(F)cc3)cc21 [Compound 12, 6-(4-(4-Fluorophenyl)-1H-imidazol-5-yl)-1-methyl-1H-benzo[d]imidazole]
11 | 6.42 | 6.92 | Fc1ccc(-c2nc[nH]c2-c2ccc3ncsc3c2)cc1 [Compound 13, 6-(4-(4-Fluorophenyl)-1H-imidazol-5-yl)benzo[d]thiazole]
12 | 5.74 | 6.21 | Fc1ccc(-c2nc[nH]c2-c2ccc3nccn3c2)cc1 [Compound 14, 6-(4-(4-Fluorophenyl)-1H-imidazol-5-yl)imidazo[1,2-a]pyridine]
13 | 7.22 | 8.00 | Cc1cccc(-c2nc[nH]c2-c2ccc3[nH]ncc3c2)c1 [Compound 15, 5-(4-(m-Tolyl)-1H-imidazol-5-yl)-1H-indazole]
14 | 7.00 | 7.70 | Cc1cccc(-c2nc[nH]c2-c2ccc3cn[nH]c3c2)c1 [Compound 16, 6-(4-(m-Tolyl)-1H-imidazol-5-yl)-1H-indazole]
15 | 6.85 | 7.30 | Cc1cccc(-c2nc[nH]c2-c2ccc3ncn(C)c3c2)c1 [Compound 17, 1-Methyl-6-(4-(m-tolyl)-1H-imidazol-5-yl)-1H-benzo[d]imidazole]
16 | 6.82 | 7.40 | Cc1cccc(-c2nc[nH]c2-c2ccc3ncsc3c2)c1 [Compound 18, 6-(4-(m-Tolyl)-1H-imidazol-5-yl)benzo[d]thiazole]
17 | 6.14 | 6.82 | Cc1cccc(-c2nc[nH]c2-c2ccc3nccn3c2)c1 [Compound 19, 6-(4-(m-Tolyl)-1H-imidazol-5-yl)imidazo[1,2-a]pyridine]
18 | 6.80 | 6.74 | Cc1cccc(-c2nc[nH]c2-c2ccc3nccnc3c2)c1 [Compound 20, 6-(4-(m-Tolyl)-1H-imidazol-5-yl)quinoxaline]
19 | 6.13 | 6.42 | Cc1cc(-c2ncn(C)c2-c2ccc3nccnc3c2)ccc1F [Compound 21, 6-(4-(4-Fluoro-3-methylphenyl)-1-methyl-1H-imidazol-5-yl)quinoxaline]
20 | 7.52 | 7.70 | Clc1cccc(-c2nc[nH]c2-c2ccc3[nH]ncc3c2)c1 [Compound 22, 5-(4-(3-Chlorophenyl)-1H-imidazol-5-yl)-1H-indazole]
21 | 7.52 | 8.00 | Clc1cccc(-c2nc[nH]c2-c2ccc3cn[nH]c3c2)c1 [Compound 23, 6-(4-(3-Chlorophenyl)-1H-imidazol-5-yl)-1H-indazole]
22 | 8.00 | 8.00 | Cn1cnc2ccc(-c3[nH]cnc3-c3cccc(Cl)c3)cc21 [Compound 24, 6-(4-(3-Chlorophenyl)-1H-imidazol-5-yl)-1-methyl-1H-benzo[d]imidazole]
23 | 7.22 | 7.40 | Clc1cccc(-c2nc[nH]c2-c2ccc3ncsc3c2)c1 [Compound 25, 6-(4-(3-Chlorophenyl)-1H-imidazol-5-yl)benzo[d]thiazole]

Row | pIC50 [1] | pIC50 [2] | Compound
24 | 6.59 | 6.66 | Clc1cccc(-c2nc[nH]c2-c2ccc3nccn3c2)c1 [Compound 26, 6-(4-(3-Chlorophenyl)-1H-imidazol-5-yl)imidazo[1,2-a]pyridine]
25 | 6.92 | 7.05 | Fc1cccc(-c2nc[nH]c2-c2ccc3[nH]ncc3c2)c1 [Compound 27, 5-(4-(3-Fluorophenyl)-1H-imidazol-5-yl)-1H-indazole]
26 | 7.22 | 7.30 | Fc1cccc(-c2nc[nH]c2-c2ccc3cn[nH]c3c2)c1 [Compound 28, 6-(4-(3-Fluorophenyl)-1H-imidazol-5-yl)-1H-indazole]
27 | – | 6.54 | Cn1cnc2ccc(-c3[nH]cnc3-c3cccc(F)c3)cc21 [Compound 29, 6-(4-(3-Fluorophenyl)-1H-imidazol-5-yl)-1-methyl-1H-benzo[d]imidazole]
28 | 6.49 | 6.57 | Fc1cccc(-c2nc[nH]c2-c2ccc3ncsc3c2)c1 [Compound 30, 6-(4-(3-Fluorophenyl)-1H-imidazol-5-yl)benzo[d]thiazole]
29 | 7.05 | 7.70 | Fc1ccc(-c2nc[nH]c2-c2ccc3[nH]ncc3c2)cc1F [Compound 31, 5-(4-(3,4-Difluorophenyl)-1H-imidazol-5-yl)-1H-indazole]
30 | 6.85 | 7.30 | Fc1ccc(-c2nc[nH]c2-c2ccc3cn[nH]c3c2)cc1F [Compound 32, 6-(4-(3,4-Difluorophenyl)-1H-imidazol-5-yl)-1H-indazole]
31 | 7.15 | 7.22 | Cn1cnc2ccc(-c3[nH]cnc3-c3ccc(F)c(F)c3)cc21 [Compound 33, 6-(4-(3,4-Difluorophenyl)-1H-imidazol-5-yl)-1-methyl-1H-benzo[d]imidazole]
32 | 6.85 | 7.15 | Fc1ccc(-c2nc[nH]c2-c2ccc3ncsc3c2)cc1F [Compound 34, 6-(4-(3,4-Difluorophenyl)-1H-imidazol-5-yl)benzo[d]thiazole]
33 | 6.19 | 6.52 | Fc1ccc(-c2nc[nH]c2-c2ccc3nccn3c2)cc1F [Compound 35, 6-(4-(3,4-Difluorophenyl)-1H-imidazol-5-yl)imidazo[1,2-a]pyridine]
34 | 5.83 | 6.30 | Fc1ccc(-c2nc[nH]c2-c2ccc3ncccc3c2)cc1F [Compound 36, 6-(4-(3,4-Difluorophenyl)-1H-imidazol-5-yl)quinoline]
35 | 6.04 | 6.59 | Cc1cc(-c2ncn(C)c2-c2ccc3ncccc3c2)ccc1F [Compound 37, 6-(4-(4-Fluoro-3-methylphenyl)-1-methyl-1H-imidazol-5-yl)quinoline]
36 | 5.59 | 6.03 | Fc1ccc(-c2nc[nH]c2-c2ccc3ncccc3c2)cc1 [Compound 38, 6-(4-(4-Fluorophenyl)-1H-imidazol-5-yl)quinoline]
37 | 6.41 | 6.72 | Clc1cccc(-c2nc[nH]c2-c2ccc3ncccc3c2)c1 [Compound 39, 6-(4-(3-Chlorophenyl)-1H-imidazol-5-yl)quinoline]
38 | 5.91 | 6.34 | Fc1cccc(-c2nc[nH]c2-c2ccc3ncccc3c2)c1 [Compound 40, 6-(4-(3-Fluorophenyl)-1H-imidazol-5-yl)quinoline]
39 | 7.22 | 7.70 | Cc1cccc(-c2ncn(C)c2-c2ccc3[nH]ncc3c2)c1 [Compound 41, 5-(1-Methyl-4-(m-tolyl)-1H-imidazol-5-yl)-1H-indazole]
40 | 6.82 | 7.52 | Cc1cccc(-c2ncn(C)c2-c2ccc3cn[nH]c3c2)c1 [Compound 42, 6-(1-Methyl-4-(m-tolyl)-1H-imidazol-5-yl)-1H-indazole]
41 | 6.28 | 6.72 | Cc1cccc(-c2ncn(C)c2-c2ccc3ncn(C)c3c2)c1 [Compound 43, 1-Methyl-6-(1-methyl-4-(m-tolyl)-1H-imidazol-5-yl)-1H-benzo[d]imidazole]
42 | 6.14 | 6.74 | Cc1cccc(-c2ncn(C)c2-c2ccc3ncsc3c2)c1 [Compound 44, 6-(1-Methyl-4-(m-tolyl)-1H-imidazol-5-yl)benzo[d]thiazole]
43 | 5.75 | 6.36 | Cc1cccc(-c2ncn(C)c2-c2ccc3nccn3c2)c1 [Compound 45, 6-(1-Methyl-4-(m-tolyl)-1H-imidazol-5-yl)imidazo[1,2-a]pyridine]
44 | 5.77 | 6.59 | Cc1cccc(-c2ncn(C)c2-c2ccc3ncccc3c2)c1 [Compound 46, 6-(1-Methyl-4-(m-tolyl)-1H-imidazol-5-yl)quinoline]
45 | 6.18 | 6.74 | Cc1cccc(-c2ncn(C)c2-c2ccc3nccnc3c2)c1 [Compound 47, 6-(1-Methyl-4-(m-tolyl)-1H-imidazol-5-yl)quinoxaline]
46 | 6.60 | 7.22 | Cn1cnc(-c2ccc(F)cc2)c1-c1ccc2[nH]ncc2c1 [Compound 48, −(4-(4-Fluorophenyl)-1-methyl-1H-imidazol-5-yl)-1H-indazole]
